How the values were obtained:
[1] = Gas; for mass density: Gas pipette; for viscosity: Oscillating disk viscometry
[2] = xn = mol fraction of the nth substance listed; settings: Gas, x2 = 0; for mass density: Gas pipette; for viscosity: Oscillating disk viscometry

COC [dimethyl ether]
[1]
Settings | mass density [kg/m3] | viscosity [mPa·s]
298.15 K, 101 kPa | 1.91 | 0.00922
298.15 K, 296 kPa | 6.081 | 0.00918
298.15 K, 475 kPa | 10.06 | 0.0091
323.15 K, 101 kPa | 1.652 | 0.00997
323.15 K, 295 kPa | 5.561 | 0.00996
323.15 K, 490 kPa | 9.31 | 0.00993
323.15 K, 736 kPa | 14.71 | 0.00995
323.15 K, 976 kPa | 22.53 | 0.00994
348.15 K, 101 kPa | 1.332 | 0.01081
348.15 K, 305 kPa | 5.17 | 0.01081
348.15 K, 551 kPa | 9.705 | 0.01082
348.15 K, 1006 kPa | 19.03 | 0.01085
348.15 K, 1561 kPa | 35.81 | 0.01094
348.15 K, 1850 kPa | 44.66 | 0.01106
373.15 K, 101 kPa | 1.235 | 0.01161
373.15 K, 305 kPa | 4.748 | 0.0116
373.15 K, 500 kPa | 7.787 | 0.01162
373.15 K, 1028 kPa | 16.71 | 0.01168
373.15 K, 1940 kPa | 35.33 | 0.01191
373.15 K, 2505 kPa | 51.25 | 0.01219
373.15 K, 2875 kPa | 67.49 | 0.01247
373.15 K, 3049 kPa | 74.07 | 0.01261
398.15 K, 101 kPa | 0.948 | 0.01234
398.15 K, 300 kPa | 4.392 | 0.01237
398.15 K, 531 kPa | 7.678 | 0.01239
398.15 K, 992 kPa | 15.1 | 0.01244
398.15 K, 2085 kPa | 34.47 | 0.01274
398.15 K, 2985 kPa | 54.66 | 0.01317
398.15 K, 3965 kPa | 87.68 | 0.0141
398.15 K, 4480 kPa | 112.3 | 0.01504
398.15 K, 4620 kPa | 122.4 | 0.01543
423.15 K, 101 kPa | 1.009 | 0.01332
423.15 K, 310 kPa | 4.289 | 0.01333
423.15 K, 505 kPa | 6.812 | 0.01335
423.15 K, 985 kPa | 13.75 | 0.01342
423.15 K, 2022 kPa | 30.21 | 0.0137
423.15 K, 3004 kPa | 48.47 | 0.01413
423.15 K, 4015 kPa | 71.3 | 0.01477
423.15 K, 4495 kPa | 86.57 | 0.01521
423.15 K, 4912 kPa | 99.15 | 0.01568

N#N [nitrogen]
[1]
Settings | mass density [kg/m3] | viscosity [mPa·s]
298.15 K, 101 kPa | 1.178 | 0.01786
298.15 K, 240 kPa | 2.833 | 0.01788
298.15 K, 672 kPa | 7.705 | 0.01794
323.15 K, 101 kPa | 0.858 | 0.01901
323.15 K, 290 kPa | 3.114 | 0.01904
323.15 K, 466 kPa | 4.925 | 0.01906
323.15 K, 856 kPa | 9.024 | 0.01911
348.15 K, 101 kPa | 0.761 | 0.0201
348.15 K, 518 kPa | 5.043 | 0.02016
348.15 K, 1010 kPa | 9.8 | 0.02022
348.15 K, 2028 kPa | 19.63 | 0.02037
373.15 K, 101 kPa | 0.633 | 0.02116
373.15 K, 495 kPa | 4.527 | 0.02121
373.15 K, 1000 kPa | 8.832 | 0.02126
373.15 K, 2006 kPa | 18.01 | 0.0214
373.15 K, 2930 kPa | 26.15 | 0.02152
373.15 K, 3985 kPa | 35.64 | 0.02168
373.15 K, 4966 kPa | 44.7 | 0.02184
398.15 K, 101 kPa | 0.727 | 0.02219
398.15 K, 520 kPa | 4.329 | 0.02222
398.15 K, 1003 kPa | 8.657 | 0.02228
398.15 K, 2000 kPa | 16.49 | 0.0224
398.15 K, 3473 kPa | 28.94 | 0.02259
398.15 K, 4849 kPa | 40.28 | 0.02278
423.15 K, 101 kPa | 0.568 | 0.02318
423.15 K, 550 kPa | 4.226 | 0.02322
423.15 K, 1032 kPa | 8.294 | 0.02328
423.15 K, 2012 kPa | 15.86 | 0.02338
423.15 K, 3435 kPa | 26.9 | 0.02354
423.15 K, 4832 kPa | 37.69 | 0.02373

N#N [nitrogen] + COC
[2]
Settings | mass density [kg/m3] | viscosity [mPa·s]
298.15 K, 101 kPa | 1.178 | 0.01786
298.15 K, 240 kPa | 2.833 | 0.01788
298.15 K, 672 kPa | 7.705 | 0.01794
323.15 K, 101 kPa | 0.858 | 0.01901
323.15 K, 290 kPa | 3.114 | 0.01904
323.15 K, 466 kPa | 4.925 | 0.01906
323.15 K, 856 kPa | 9.024 | 0.01911
348.15 K, 101 kPa | 0.761 | 0.0201
348.15 K, 518 kPa | 5.043 | 0.02016
348.15 K, 1010 kPa | 9.8 | 0.02022
348.15 K, 2028 kPa | 19.63 | 0.02037
373.15 K, 101 kPa | 0.633 | 0.02116
373.15 K, 495 kPa | 4.527 | 0.02121
373.15 K, 1000 kPa | 8.832 | 0.02126
373.15 K, 2006 kPa | 18.01 | 0.0214
373.15 K, 2930 kPa | 26.15 | 0.02152
373.15 K, 3985 kPa | 35.64 | 0.02168
373.15 K, 4966 kPa | 44.7 | 0.02184
398.15 K, 101 kPa | 0.727 | 0.02219
398.15 K, 520 kPa | 4.329 | 0.02222
398.15 K, 1003 kPa | 8.657 | 0.02228
398.15 K, 2000 kPa | 16.49 | 0.0224
398.15 K, 3473 kPa | 28.94 | 0.02259
398.15 K, 4849 kPa | 40.28 | 0.02278
423.15 K, 101 kPa | 0.568 | 0.02318
423.15 K, 550 kPa | 4.226 | 0.02322
423.15 K, 1032 kPa | 8.294 | 0.02328
423.15 K, 2012 kPa | 15.86 | 0.02338
423.15 K, 3435 kPa | 26.9 | 0.02354
423.15 K, 4832 kPa | 37.69 | 0.02373

— the NIST ThermoML archive (doi:10.1021/je8009545)
